Measurements from US20250353891A1 (MEDIMMUNE LIMITED, priority 2022, published 2025).
Starred links: 1 amine or outer side, 2 acyl side, 3 side chain; linkers in the order of their positions; H or OH if unused. Non-standard residues stand in square brackets, D forms with d. Residues, ends and D or L forms follow the SMILES beside them. Groups on a side chain read outwards from the residue. *: point of attachment. X1 = CC(C)(CCNC(=N)N)[C@H](N[*:1])C(=O)[*:2]; C18 diacid = O=C(O)CCCCCCCCCCCCCCCCC(=O)*; γGlu = O=C(O)[C@H](CCC(=O)[*:2])N[*:1]; Stearoyl = CCCCCCCCCCCCCCCCCC(=O)*; Palmitoyl = CCCCCCCCCCCCCCCC(=O)*; αMeF = C[C@](N)(Cc1ccccc1)C(=O)O; Myristoyl = CCCCCCCCCCCCCC(=O)*; PEG2 = NCCOCCOCCC(=O)O; AEEA = NCCOCCOCC(=O)O; Aib = CC(C)(N)C(=O)O

Target: human GLP-1 receptor (hGLP-1R) (Homo sapiens, UniProt P43220)
Assay: cAMP production (HTRF) in CHO cells expressing hGLP-1R
Format: cell-based
Parameters: expressed in transfected cells
Conditions: for % Relative Potency Ratio: Table 6, % GLP-1R activity relative to GLP-1 / % GlucR activity relative to glucagon; for EC50: Table 6, peptides modified at position 17, cAMP in CHO hGLP-1R cells, geometric mean, read-out: hGLP-1R EC50
Protocol: Cells were re-suspended in assay buffer at a batch-dependent optimized concentration (typically hGLP-1R cells at 1×10^5 cells/mL, hGCGR cells at 2×10^5 cells/mL).
Cells were added to the assay plate using a multidrop dispenser and incubated at room temperature for 30 minutes before measuring the cAMP level using a cAMP dynamic 2 homogeneous time resolved Fluorescence (HTRF) kit (Cisbio Bioassays #62AM4PEJ) following the two-step protocol as per manufacturer's recommendations. In brief, anti-cAMP cryptate (donor fluorophore) and cAMP-d2 (acceptor fluorophore) were made up separately by diluting each 1 in 20 in conjugate and lysis buffer provided in the kit. Anti-CAMP cryptate was added to all wells of the assay plate, followed by cAMP-d2 added to all wells except non-specific binding (NSB) wells (to which conjugate and lysis buffer was added).
Data was transformed to % Delta F as described in the manufacturer's guidelines and analyzed by 4-parameter logistic fit to determine EC50 values.

human GLP-1 receptor (hGLP-1R), sequence (P43220 24-463): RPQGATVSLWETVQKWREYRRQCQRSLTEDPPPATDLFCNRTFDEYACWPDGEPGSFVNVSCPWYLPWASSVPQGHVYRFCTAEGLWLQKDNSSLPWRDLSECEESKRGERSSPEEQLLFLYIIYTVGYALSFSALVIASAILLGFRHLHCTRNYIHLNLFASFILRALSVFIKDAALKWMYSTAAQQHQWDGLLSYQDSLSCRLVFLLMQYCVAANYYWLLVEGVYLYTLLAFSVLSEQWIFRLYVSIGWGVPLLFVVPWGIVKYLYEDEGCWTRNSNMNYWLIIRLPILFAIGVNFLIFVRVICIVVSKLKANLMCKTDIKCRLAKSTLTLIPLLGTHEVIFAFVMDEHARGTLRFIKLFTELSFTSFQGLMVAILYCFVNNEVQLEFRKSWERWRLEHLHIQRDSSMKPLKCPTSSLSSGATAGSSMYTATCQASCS

% Relative Potency Ratio | EC50 [nM] | SMILES
22.3 |  | CC(C)C[C@H](NC(=O)[C@H](Cc1c[nH]c2ccccc12)NC(=O)[C@H](CCCNC(=N)N)NC(=O)[C@@H](NC(=O)[C@H](Cc1ccccc1)NC(=O)[C@H](CC(=O)O)NC(=O)[C@H](CCCNC(=N)N)NC(=O)[C@H](C)NC(=O)[C@H](CCCNC(=N)N)NC(=O)[C@H](CCCCNC(=O)CC[C@H](NC(=O)CC[C@H](NC(=O)COCCOCCNC(=O)COCCOCCNC(=O)CC[C@H](NC(=O)CC[C@H](NC(=O)CCCCCCCCCCCCCCCCC(=O)O)C(=O)O)C(=O)O)C(=O)O)C(=O)O)NC(=O)[C@H](CO)NC(=O)[C@H](CC(=O)O)NC(=O)[C@H](CC(C)C)NC(=O)[C@](C)(Cc1ccccc1)NC(=O)[C@H](CCCCN)NC(=O)[C@H](CO)NC(=O)[C@@H](NC(=O)[C@H](CC(=O)O)NC(=O)[C@H](CO)NC(=O)[C@@H](NC(=O)[C@H](Cc1ccccc1)NC(=O)[C@@H](NC(=O)CNC(=O)[C@H](CCC(N)=O)NC(=O)C(C)(C)NC(=O)[C@@H](N)Cc1c[nH]cn1)[C@@H](C)O)[C@@H](C)O)C(C)C)C(C)C)C(=O)N[C@@H](CC(C)C)C(=O)N[C@@H](CCC(=O)O)C(=O)NC(C)(C)C(=O)NCC(=O)O [Peptide 136] (H-H[Aib]QGTFTSDVSK[αMeF]LDSK([γGlu-γGlu-AEEA-AEEA-γGlu-γGlu-C18 diacid])RARDFVRWLLE[Aib]G-OH; N-terminus assumed)
30.7 | 0.0452 | CC(C)C[C@H](NC(=O)[C@H](Cc1c[nH]c2ccccc12)NC(=O)[C@H](CCCNC(=N)N)NC(=O)[C@@H](NC(=O)[C@H](Cc1ccccc1)NC(=O)[C@H](CC(=O)O)NC(=O)[C@H](CCCNC(=N)N)NC(=O)[C@H](C)NC(=O)[C@H](CCCNC(=N)N)NC(=O)[C@H](CCCCNC(=O)CC[C@H](NC(=O)CC[C@H](NC(=O)COCCOCCNC(=O)COCCOCCNC(=O)CC[C@H](NC(=O)CC[C@H](NC(=O)CCCCCCCCCCCCCCCCC(=O)O)C(=O)O)C(=O)O)C(=O)O)C(=O)O)NC(=O)[C@H](CO)NC(=O)[C@H](CC(=O)O)NC(=O)[C@H](CC(C)C)NC(=O)[C@](C)(Cc1ccccc1)NC(=O)[C@H](CCCCN)NC(=O)[C@H](CO)NC(=O)[C@@H](NC(=O)[C@H](CC(=O)O)NC(=O)[C@H](CO)NC(=O)[C@@H](NC(=O)[C@H](Cc1ccccc1)NC(=O)[C@@H](NC(=O)CNC(=O)[C@H](CCC(N)=O)NC(=O)C(C)(C)NC(=O)[C@@H](N)Cc1c[nH]cn1)[C@@H](C)O)[C@@H](C)O)C(C)C)C(C)C)C(=O)N[C@@H](CC(C)C)C(=O)N[C@@H](CCC(=O)O)C(=O)NC(C)(C)C(=O)NCC(=O)O [Peptide 144] (H-H[Aib]QGTFTSDVSK[αMeF]LDSK([γGlu-γGlu-AEEA-AEEA-γGlu-γGlu-C18 diacid])RARDFVRWLLE[Aib]G-OH; N-terminus assumed)

Continued, compound first:

SMILES | % Relative Potency Ratio | EC50 [nM]
CCCCCCCCCCCCCCCCCC(=O)N[C@@H](CCC(=O)N[C@@H](CCC(=O)NCCOCCOCCC(=O)NCCOCCOCCC(=O)NCCCC[C@H](NC(=O)[C@H](CO)NC(=O)[C@H](CC(=O)O)NC(=O)[C@H](CC(C)C)NC(=O)[C@](C)(Cc1ccccc1)NC(=O)[C@H](CCCCN)NC(=O)[C@H](CO)NC(=O)[C@@H](NC(=O)[C@H](CC(=O)O)NC(=O)[C@H](CO)NC(=O)[C@@H](NC(=O)[C@](C)(Cc1ccccc1)NC(=O)[C@H](CO)NC(=O)CNC(=O)[C@H](CCC(N)=O)NC(=O)C(C)(C)NC(=O)[C@@H](N)Cc1c[nH]cn1)[C@@H](C)O)C(C)C)C(=O)N[C@H](C(=O)N[C@@H](C)C(=O)N[C@@H](CCC(N)=O)C(=O)N[C@@H](CC(=O)O)C(=O)N[C@@](C)(Cc1ccccc1)C(=O)N[C@H](C(=O)N[C@@H](CCC(=O)O)C(=O)NC(C)(C)C(=O)N[C@@H](CC(C)C)C(=O)N[C@@H](CCC(=O)O)C(=O)N[C@@H](C)C(=O)NCC(=O)NCC(N)=O)C(C)C)C(C)(C)CCNC(=N)N)C(=O)O)C(=O)O [Peptide 74] (H-H[Aib]QGS[αMeF]TSDVSK[αMeF]LDSK([PEG2-PEG2-γGlu-γGlu-Stearoyl])[X1]AQD[αMeF]VE[Aib]LEAGG-NH2; N-terminus assumed) | 11.8 | 
CCCCCCCCCCCCCCCCCC(=O)N[C@@H](CCC(=O)N[C@@H](CCC(=O)NCCOCCOCCC(=O)NCCOCCOCCC(=O)NCCCC[C@H](NC(=O)[C@H](CO)NC(=O)[C@H](CC(=O)O)NC(=O)[C@H](CC(C)C)NC(=O)[C@](C)(Cc1ccccc1)NC(=O)[C@H](CCCCN)NC(=O)[C@H](CO)NC(=O)[C@@H](NC(=O)[C@H](CC(=O)O)NC(=O)[C@H](CO)NC(=O)[C@@H](NC(=O)[C@](C)(Cc1ccccc1)NC(=O)[C@H](CO)NC(=O)CNC(=O)[C@H](CCC(N)=O)NC(=O)[C@H](CO)NC(=O)[C@@H](N)Cc1c[nH]cn1)[C@@H](C)O)C(C)C)C(=O)N[C@@H](C)C(=O)N[C@@H](C)C(=O)N[C@@H](CCC(N)=O)C(=O)N[C@@H](CC(=O)O)C(=O)N[C@@](C)(Cc1ccccc1)C(=O)N[C@H](C(=O)N[C@@H](CCC(N)=O)C(=O)NC(C)(C)C(=O)N[C@H](C(=O)N[C@@H](C)C(=O)N[C@@H](CC(N)=O)C(=O)N[C@H](C(N)=O)[C@@H](C)O)[C@@H](C)CC)C(C)C)C(=O)O)C(=O)O [Peptide 82] (H-HSQGS[αMeF]TSDVSK[αMeF]LDSK([PEG2-PEG2-γGlu-γGlu-Stearoyl])AAQD[αMeF]VQ[Aib]IANT-NH2; N-terminus assumed) | 18.3 | 
CCCCCCCCCCCCCCCC(=O)N[C@@H](CCC(=O)N[C@@H](CCC(=O)NCCOCCOCCC(=O)NCCOCCOCCC(=O)NCCCC[C@H](NC(=O)[C@H](CO)NC(=O)[C@H](CC(=O)O)NC(=O)[C@H](CC(C)C)NC(=O)[C@](C)(Cc1ccccc1)NC(=O)[C@H](CCCCN)NC(=O)[C@H](CO)NC(=O)[C@@H](NC(=O)[C@H](CC(=O)O)NC(=O)[C@H](CO)NC(=O)[C@@H](NC(=O)[C@](C)(Cc1ccccc1)NC(=O)[C@H](CO)NC(=O)CNC(=O)[C@H](CCC(N)=O)NC(=O)[C@H](CO)NC(=O)[C@@H](N)Cc1c[nH]cn1)[C@@H](C)O)C(C)C)C(=O)N[C@@H](C)C(=O)N[C@@H](C)C(=O)N[C@@H](CCC(N)=O)C(=O)N[C@@H](CC(=O)O)C(=O)N[C@@](C)(Cc1ccccc1)C(=O)N[C@H](C(=O)N[C@@H](CCC(N)=O)C(=O)N[C@H](C(=O)N[C@H](C(=O)N[C@@H](C)C(=O)N[C@@H](CC(N)=O)C(N)=O)[C@@H](C)CC)[C@@H](C)CC)C(C)C)C(=O)O)C(=O)O [Peptide 89] (H-HSQGS[αMeF]TSDVSK[αMeF]LDSK([PEG2-PEG2-γGlu-γGlu-Palmitoyl])AAQD[αMeF]VQIIAN-NH2; N-terminus assumed) | 8.0 | 
CCCCCCCCCCCCCC(=O)N[C@@H](CCC(=O)NCCOCCOCCC(=O)NCCOCCOCCC(=O)NCCCC[C@H](NC(=O)[C@H](CO)NC(=O)[C@H](CC(=O)O)NC(=O)[C@H](CC(C)C)NC(=O)[C@@H](NC(=O)[C@H](CCCCN)NC(=O)[C@H](CO)NC(=O)[C@@H](NC(=O)[C@H](CC(=O)O)NC(=O)[C@H](CO)NC(=O)[C@@H](NC(=O)[C@](C)(Cc1ccccc1)NC(=O)[C@H](CO)NC(=O)CNC(=O)[C@H](CCC(N)=O)NC(=O)[C@H](CO)NC(=O)[C@@H](N)Cc1c[nH]cn1)[C@@H](C)O)C(C)C)[C@@H](C)CC)C(=O)N[C@@H](C)C(=O)N[C@@H](C)C(=O)N[C@@H](CCC(N)=O)C(=O)N[C@@H](CC(=O)O)C(=O)N[C@@](C)(Cc1ccccc1)C(=O)N[C@H](C(=O)N[C@@H](CCC(N)=O)C(=O)NC(C)(C)C(=O)N[C@H](C(=O)N[C@H](C(=O)N[C@@H](CC(N)=O)C(=O)N[C@H](C(N)=O)[C@@H](C)O)[C@@H](C)CC)[C@@H](C)CC)C(C)C)C(=O)O [Peptide 122] (H-HSQGS[αMeF]TSDVSKILDSK([PEG2-PEG2-γGlu-Myristoyl])AAQD[αMeF]VQ[Aib]IINT-NH2; N-terminus assumed) | 1.2 | 0.00142
CC(C)C[C@H](NC(=O)[C@H](Cc1c[nH]c2ccccc12)NC(=O)[C@H](CCCNC(=N)N)NC(=O)[C@@H](NC(=O)[C@H](Cc1ccccc1)NC(=O)[C@H](CC(=O)O)NC(=O)[C@H](CCC(N)=O)NC(=O)[C@H](C)NC(=O)[C@H](CCCNC(=N)N)NC(=O)[C@H](CCCCNC(=O)COCCOCCNC(=O)COCCOCCNC(=O)CC[C@H](NC(=O)CCCCCCCCCCCCCCCCC(=O)O)C(=O)O)NC(=O)[C@H](CO)NC(=O)[C@H](CC(=O)O)NC(=O)[C@H](CC(C)C)NC(=O)[C@](C)(Cc1ccccc1)NC(=O)[C@H](CCCCN)NC(=O)[C@H](CO)NC(=O)[C@@H](NC(=O)[C@H](CC(=O)O)NC(=O)[C@H](CO)NC(=O)[C@@H](NC(=O)[C@H](Cc1ccccc1)NC(=O)[C@@H](NC(=O)CNC(=O)[C@H](CCC(N)=O)NC(=O)C(C)(C)NC(=O)[C@@H](N)Cc1c[nH]cn1)[C@@H](C)O)[C@@H](C)O)C(C)C)C(C)C)C(=O)N[C@@H](CC(C)C)C(=O)NC(C)(C)C(=O)N[C@H](C(=O)N[C@@H](CCCCN)C(=O)O)[C@@H](C)O [Peptide 177] | 25.5 | 
